Assays:
Format in all cases: in vivo
Conditions in all cases: 100 ppm, 1 Day Protectant
[1] = tested on: Venturia inaequalis; assay: Apple scab (VENTIN) disease control
Protocol: All fungicides were evaluated using the aforementioned method for their activity vs. all target diseases, unless stated otherwise. Wheat leaf blotch and brown rust activity were also evaluated using track spray applications, in which case the fungicides were formulated as EC formulations, containing 0.1% Trycol 5941 in the spray solutions. Wheat plants (variety Yuma) were grown from seed in a greenhouse in 50% mineral soil/50% soil-less Metro mix until the first leaf was fully emerged, with 7-10 seedlings per pot. These plants were inoculated with an aqueous spore suspension of Zymoseptoria tritici either prior to or after fungicide treatments. After inoculation the plants were kept in 100% relative humidity (one day in a dark dew chamber followed by two to three days in a lighted dew chamber at 20° C.) to permit spores to germinate and infect the leaf. The plants were then transferred to a greenhouse set at 20° C. for disease to develop. When disease symptoms were fully expressed on the 1st leaves of untreated plants, infection levels were assessed on a scale of 0 to 100 percent disease severity. Percent disease control was calculated using the ratio of disease severity on treated plants relative to untreated plants. […] Seedlings with two expanding young leaves at the top (older leaves at bottom of the plants were trimmed) were used in the test. Plants were inoculated with a spore suspension of Venturia inaequalis 24 hr after fungicide treatment and kept in a 22° C. dew chamber with 100% relative humidity for 48 hr, and then moved to a greenhouse set at 20° C. for disease to develop. Fungicide formulation, application and disease assessment on the sprayed leaves followed the procedures as described in the Example A.

[2] = tested on: Erysiphe cichoracearum; assay: Powdery mildew of cucumber (ERYSCI) disease control
Protocol: All fungicides were evaluated using the aforementioned method for their activity vs. all target diseases, unless stated otherwise. Wheat leaf blotch and brown rust activity were also evaluated using track spray applications, in which case the fungicides were formulated as EC formulations, containing 0.1% Trycol 5941 in the spray solutions. Wheat plants (variety Yuma) were grown from seed in a greenhouse in 50% mineral soil/50% soil-less Metro mix until the first leaf was fully emerged, with 7-10 seedlings per pot. These plants were inoculated with an aqueous spore suspension of Zymoseptoria tritici either prior to or after fungicide treatments. After inoculation the plants were kept in 100% relative humidity (one day in a dark dew chamber followed by two to three days in a lighted dew chamber at 20° C.) to permit spores to germinate and infect the leaf. The plants were then transferred to a greenhouse set at 20° C. for disease to develop. When disease symptoms were fully expressed on the 1st leaves of untreated plants, infection levels were assessed on a scale of 0 to 100 percent disease severity. Percent disease control was calculated using the ratio of disease severity on treated plants relative to untreated plants. […] Plants were inoculated with a spore suspension 24 hr following fungicide treatments. After inoculation the plants remained in the greenhouse set at 20° C. until disease was fully expressed. Fungicide formulation, application and disease assessment on the sprayed leaves followed the procedures as described in the Example A.

[3] = tested on: Rhyncosporium secalis; assay: Barley scald (RHYNSE) disease control; set-up: key: A: > 80; B: ≤ 80; C: Not Tested; D: No Activity Observed in the Reported Assay
Protocol: All fungicides were evaluated using the aforementioned method for their activity vs. all target diseases, unless stated otherwise. Wheat leaf blotch and brown rust activity were also evaluated using track spray applications, in which case the fungicides were formulated as EC formulations, containing 0.1% Trycol 5941 in the spray solutions. Wheat plants (variety Yuma) were grown from seed in a greenhouse in 50% mineral soil/50% soil-less Metro mix until the first leaf was fully emerged, with 7-10 seedlings per pot. These plants were inoculated with an aqueous spore suspension of Zymoseptoria tritici either prior to or after fungicide treatments. After inoculation the plants were kept in 100% relative humidity (one day in a dark dew chamber followed by two to three days in a lighted dew chamber at 20° C.) to permit spores to germinate and infect the leaf. The plants were then transferred to a greenhouse set at 20° C. for disease to develop. When disease symptoms were fully expressed on the 1st leaves of untreated plants, infection levels were assessed on a scale of 0 to 100 percent disease severity. Percent disease control was calculated using the ratio of disease severity on treated plants relative to untreated plants. Example H: Evaluation of Fungicidal Activity: Barley Scald (Rhyncosporium secalis; Bayer Code […]) Barley seedlings (variety Harrington) were propagated in soil-less Metro mix, with each pot having 8 to 12 plants, and used in the test when first leaf was fully emerged. Test plants were inoculated by an aqueous spore suspension of Rhyncosporium secalis 24 hr after fungicide treatments. After inoculation the plants were kept in a dew room at 22° C. with 100% relative humidity for 48 hr. The plants were then transferred to a greenhouse set at 20° C. for disease to develop. Fungicide formulation, application and disease assessment on the sprayed leaves followed the procedures as described in the Example A.

SMILES	VENTIN disease control, 1DP [1]	ERYSCI disease control, 1DP [2]	RHYNSE disease control, 1DP [3]
COc1ccnc(C(=O)N[C@@H](C)C(=O)O[C@@H](C)[C@@H](CC(C)C)Oc2ccccc2)c1OCOC(C)=O [Cmpd 557]	B (≤ 80)		
CC[C@@H](CCOC)[C@@H](Oc1ccccc1)[C@H](C)OC(=O)[C@H](C)NC(=O)c1nccc(OC)c1OCOC(C)=O [Cmpd 476]		B (≤ 80)	B (≤ 80)
COc1ccnc(C(=O)N[C@@H](C)C(=O)O[C@@H](C)[C@@H](CC(C)C)Oc2ccccc2)c1OCOC(=O)C(C)C [Cmpd 1101]			A (> 80)
COc1ccnc(C(=O)N[C@@H](C)C(=O)O[C@@H](C)[C@H](Oc2cc(F)cc(Cl)c2)c2ccccc2)c1OC(C)=O [Cmpd 642]	A (> 80)		A (> 80)
CCC(C)C(Oc1ccccc1)C(C)OC(=O)C(C)NC(=O)c1nccc(OC)c1OC(C)=O (stereo not shown) [Cmpd 691]			B (≤ 80)
COc1ccnc(C(=O)N[C@H](C)C(=O)O[C@H](C)[C@@H](Oc2ccccc2)c2ccccc2)c1OCOC(C)=O [Cmpd 549]	B (≤ 80)		
COc1ccnc(C(=O)N[C@@H](C)C(=O)O[C@@H](C)[C@H](Oc2cccc(Cl)c2)c2ccccc2)c1OCOC(C)=O [Cmpd 637]			D
COc1ccnc(C(=O)N[C@@H](C)C(=O)O[C@H](C)[C@@H](Oc2ccccc2)c2ccccc2)c1OCOC(C)=O [Cmpd 547]	B (≤ 80)		
COc1ccnc(C(=O)N[C@@H](C)C(=O)O[C@@H](C)[C@H](Oc2ccccc2)C(C)C)c1OCOC(C)=O [Cmpd 475]	A (> 80)	B (≤ 80)	B (≤ 80)
COc1ccnc(C(=O)N[C@H](C)C(=O)O[C@H](C)[C@@H](Oc2ccccc2)C(C)C)c1OCOC(C)=O [Cmpd 548]	B (≤ 80)		
COc1ccnc(C(=O)N[C@@H](C)C(=O)O[C@@H](C)[C@H](Oc2ccccc2)C(C)C)c1OC(C)=O [Cmpd 478]		B (≤ 80)	B (≤ 80)
COc1ccnc(C(=O)N[C@H](C)C(=O)O[C@H](C)[C@H](Oc2ccccc2)C(C)C)c1OCOC(C)=O [Cmpd 560]	B (≤ 80)		
CCC(CC)[C@@H](Oc1ccccc1)[C@H](C)OC(=O)[C@H](C)NC(=O)c1nccc(OC)c1OC(C)=O [Cmpd 479]	A (> 80)	A (> 80)	B (≤ 80)
COc1ccnc(C(=O)N[C@@H](C)C(=O)O[C@@H](C)[C@H](Oc2cccc(F)c2)c2ccccc2)c1OCOC(C)=O [Cmpd 574]			A (> 80)
CCCOC(CC)C(Oc1ccccc1)C(C)OC(=O)C(C)NC(=O)c1nccc(OC)c1OCOC(C)=O (stereo not shown) [Cmpd 446]			B (≤ 80)
COc1ccnc(C(=O)N[C@@H](C)C(=O)O[C@@H](C)[C@H](Oc2ccccc2Cl)c2ccccc2)c1OC(C)=O [Cmpd 640]			B (≤ 80)
COc1ccnc(C(=O)N[C@@H](C)C(=O)O[C@@H](C)[C@H](Oc2ccccc2)C2CCCC2)c1OCOC(C)=O [Cmpd 556]	A (> 80)		B (≤ 80)
COc1ccnc(C(=O)N[C@@H](C)C(=O)O[C@@H](C)[C@H](Oc2ccccc2)c2ccccc2)c1OCOC(C)=O [Cmpd 500]	B (≤ 80)		A (> 80)
CCC(CC)[C@@H](Oc1ccccc1)[C@H](C)OC(=O)[C@H](C)NC(=O)c1nccc(OC)c1OCOC(C)=O [Cmpd 477]	B (≤ 80)	A (> 80)	B (≤ 80)
COc1ccnc(C(=O)N[C@@H](C)C(=O)O[C@@H](C)[C@@H](Oc2ccccc2)C(C)C)c1OCOC(C)=O [Cmpd 552]	B (≤ 80)		
COc1ccnc(C(=O)N[C@@H](C)C(=O)O[C@@H](C)[C@H](Oc2cc(F)cc(Cl)c2)C(C)C)c1OCOC(C)=O [Cmpd 617]			B (≤ 80)
CCC(C)C(Oc1ccccc1)C(C)OC(=O)C(C)NC(=O)c1nccc(OC)c1OCOC(C)=O (stereo not shown) [Cmpd 692]	B (≤ 80)		A (> 80)
CC[C@@H](CCOC)[C@@H](Oc1ccccc1)[C@H](C)OC(=O)[C@H](C)NC(=O)c1nccc(OC)c1OC(C)=O [Cmpd 482]		B (≤ 80)	
CCC(CC)[C@@H](Oc1ccc(F)cc1)[C@H](C)OC(=O)[C@H](C)NC(=O)c1nccc(OC)c1OCOC(C)=O [Cmpd 587]			B (≤ 80)
CCC[C@@H](Oc1ccccc1)[C@H](C)OC(=O)[C@H](C)NC(=O)c1nccc(OC)c1OCOC(C)=O [Cmpd 699]	B (≤ 80)		B (≤ 80)
COc1ccnc(C(=O)N[C@H](C)C(=O)O[C@@H](C)[C@H](Oc2ccccc2)C(C)C)c1OCOC(C)=O [Cmpd 558]	B (≤ 80)		
COc1ccnc(C(=O)N[C@H](C)C(=O)O[C@@H](C)[C@@H](Oc2ccccc2)C(C)C)c1OCOC(C)=O [Cmpd 559]	B (≤ 80)		
C=CC(C)C(Oc1ccccc1)C(C)OC(=O)C(C)NC(=O)c1nccc(OC)c1OCOC(C)=O (stereo not shown) [Cmpd 694]	B (≤ 80)		B (≤ 80)
COc1ccnc(C(=O)N[C@@H](C)C(=O)O[C@@H](C)[C@H](Oc2cccc(Cl)c2)C(C)C)c1OC(C)=O [Cmpd 566]			A (> 80)
